Measurements published in US9765087B2, “Benzimidazole derivatives” (ENANTA PHARMACEUTICALS, INC., priority 2009, dated 2017).

Test system: HCV 1b genotype replicon
Assay: HCV replicon assay (qRT-PCR or luciferase), genotype 1b
Format: cell-based
Details: Hepatitis C virus, Table 11, qRT-PCR or luciferase assay, read-out: Genotype-1b replicon EC50 Range
From the text: HCV replicon cell lines (kindly provided by R. Bartenschlager) isolated from colonies as described by Lohman et. al. (Lohman et al. (1999) Science 285: 110-113, expressly incorporated by reference in its entirety) and used for all experiments. The HCV replicon has the nucleic acid sequence set forth in EMBL Accession No.: AJ242651, the coding sequence of which is from nucleotides 1801 to 8406.
The coding sequence of the published HCV replicon was synthesized and subsequently assembled in a modified plasmid pBR322 (Promega, Madison, Wis.) using standard molecular biology techniques. One replicon cell line (“SGR 11-7”) stably expresses HCV replicon RNA which consists of (i) the HCV 5′UTR fused to the first 12 amino acids of the capsid protein, (ii) the neomycin phosphotransferase gene (neo), (iii) the IRES from encephalomyocarditis virus (EMCV), and (iv) HCV […] to NSSB genes and the HCV 3′UTR. Another replicon cell line (“Huh-luc/neo-ET”) described by Vrolijk et. al. (Vrolijk et. al. (2003) Journal of Virological Methods 110:201-209, expressly incorporated by reference in its entirety) stably expresses HCV replicon RNA which consists of (i) the HCV 5′UTR fused to the first 12 amino acids of the capsid protein, (ii) the firefly luciferase reporter gene, (iii) the ubiquitin gene, (iv) the neomycin phosphotransferase gene (neo), (v) the IRES from encephalomyocarditis virus (EMCV), and (vi) HCV NS3 to NS5B genes that harbor cell culture adaptive mutations (E1202G, T1280I, K1846T) and the HCV 3′UTR.
These cell lines were maintained at 37° C., 5% CO2, 100% relative humidity in DMEM (Cat#11965-084, Invitrogen), with 10% fetal calf serum (“FCS”, Invitrogen), 1% non-essential amino acids (Invitrogen), 1% of Glutamax (Invitrogen), 1% of 100× penicillin/streptomycin (Cat#15140-122, Invitrogen) and Geneticin (Cat#10131-027, Invitrogen) at 0.75 mg/ml or 0.5 mg/ml for 11-7 and Huh-luc/neo-ET cells, respectively.
EC50 values of single agent compounds and combinations were determined by HCV RNA detection using quantitative RT-PCR, according to the manufacturer's instructions, with a TAQMAN® One-Step RT-PCR Master Mix Reagents Kit (Cat#AB 4309169, Applied Biosystems) on an ABI Model 7500 thermocycler. The TaqMan primers used for detecting and quantifying HCV RNA were obtained from Integrated DNA Technologies. HCV RNA was normalized to GAPDH RNA levels in drug-treated cells, which is detected and quantified using the Human GAPDH Endogenous Control Mix (Applied Biosystems, AB 4310884E). Total cellular RNA is purified from 96-well plates using the RNAqueous 96 kit (Ambion, Cat# AM1812). Chemical agent cytotoxicity is evaluated using an MTS assay according to the manufacturer's directions (Promega).
Since clinical drug resistance often develops in viral infections following single agent therapies, there is a need to assess the additive, antagonistic, or synergistic properties of combination therapies. We used the HCV replicon system to assess the potential use of the compound of the present invention or in combination therapies with Interferon alpha, cyclosporine analogs and inhibitors targeting other HCV proteins. The acute effects of a single or combinations of drugs are studied in the “Huh-luc/neo-ET” replicon with each chemical agent titrated in an X or Y direction in a 6 point two-fold dilution curve centered around the EC50 of each drug. Briefly, replicon cells are seeded at 7,000 cells per well in 90 ul DMEM (without phenol red, Invitrogen Cat.#31053-036) per well with 10% FCS, 1% non-essential amino acids, 1% of Glutamax and 1% of 100× penicillin/streptomycin and incubated overnight at 37° C., 5% CO2, 100% relative humidity. […]

| Compound | EC50 [nM] |
| --- | --- |
| COC(=O)N[C@H](C(=O)N1CCC[C@H]1c1nc(-c2ccc(C#Cc3ccc4[nH]c([C@@H]5CCCN5C(=O)[C@@H](c5ccccc5)C(C)C)nc4c3)cc2)c[nH]1)C(C)C [Example 507] | < 1 |
| COC(=O)N[C@H](C(=O)N1CCC[C@H]1c1nc2cc(C#Cc3ccc(-c4c[nH]c([C@@H]5CCCN5C(=O)[C@@H](NC(=O)OC)C(C)C)n4)cc3)ccc2[nH]1)c1ccccc1 [Example 509] | < 1 |
| COC(=O)N[C@H](C(=O)N1CCC[C@H]1c1nc(-c2ccc(C#Cc3ccc4[nH]c([C@@H]5CC(F)(F)CN5C(=O)[C@@H](NC(=O)OC)C(C)C)nc4c3)cc2)c[nH]1)C(C)C [Example 519] | < 1 |
| COC(=O)N[C@H](C(=O)N1CCC[C@H]1c1nc(-c2ccc(C#Cc3ccc4[nH]c([C@@H]5CCCN5C(=O)OC(C)(C)C)nc4c3)cc2)c[nH]1)C(C)C [Example 500] | 1 to 10 |
| COC(=O)N[C@H](C(=O)N1CCC[C@H]1c1ncc(-c2ccc(C#Cc3ccc4nc([C@@H]5CCCN5C(=O)[C@@H](NC(=O)OC)C(C)C)[nH]c4c3)cc2)[nH]1)C(C)C [Example 515] | < 1 |
| COC(=O)N[C@H](C(=O)N1CCC[C@H]1c1ncc(-c2ccc(C#Cc3ccc4nc([C@@H]5C[C@H]6C[C@H]6N5C(=O)[C@@H](NC(=O)OC)C(C)C)[nH]c4c3)cc2)[nH]1)C(C)C [Example 541] | < 1 |
| COC(=O)N[C@H](C(=O)N1CCC[C@H]1c1ncc(-c2ccc(C#Cc3ccc4nc([C@@H]5CCCN5C(=O)[C@@H](NC(=O)OC)[C@@H](C)O)[nH]c4c3)cc2)[nH]1)[C@@H](C)O [Example 527] | < 1 |
| COC(=O)N[C@@H](C(=O)N1CCC[C@H]1c1nc2ccc(CCc3ccc(-c4cnc([C@@H]5CCCN5C(=O)[C@H](NC(=O)OC)c5ccccc5)o4)cc3)cc2[nH]1)c1ccccc1 [Example 534] | < 1 |
| COC(=O)N[C@H](C(=O)N1CCC[C@H]1c1nc(-c2ccc(CCCc3ccc4[nH]c([C@@H]5CCCN5C(=O)[C@@H](NC(=O)OC)C(C)C)nc4c3)s2)c[nH]1)C(C)C [Example 457] | < 1 |
| COC(=O)N[C@H](C(=O)N1CCC[C@H]1c1nc(-c2ccc(OCc3ccc4[nH]c([C@@H]5CCCN5C(=O)[C@@H](NC(=O)OC)C(C)C)nc4c3)cc2)c[nH]1)C(C)C [Example 451] | < 1 |
| CC[C@H](NC(=O)OC)C(=O)N1CCC[C@H]1c1nc2cc(C#Cc3ccc(-c4c[nH]c([C@@H]5CCCN5C(=O)[C@@H](NC(=O)OC)C(C)C)n4)cc3)ccc2[nH]1 [Example 502] | < 1 |
| CCOC(=O)N[C@H](C(=O)N1CCC[C@H]1c1nc2cc(C#Cc3ccc(-c4c[nH]c([C@@H]5CCCN5C(=O)[C@@H](NC(=O)OC)C(C)C)n4)cc3)ccc2[nH]1)C(C)C [Example 481] | < 1 |
| COC(=O)N[C@H](C(=O)N1CCC[C@H]1c1nc(-c2ccc(C#Cc3ccc4[nH]c([C@@H]5CCCN5C(=O)[C@@H](NC(C)=O)C(C)C)nc4c3)cc2)c[nH]1)C(C)C [Example 506] | < 1 |
| COC(=O)N[C@H](C(=O)N1CCC[C@H]1c1nc(-c2ccc3cc(-c4ccc5[nH]c([C@@H]6CCCN6C(=O)[C@@H](NC(=O)OC)[C@@H](C)OC)nc5c4)ccc3c2)c[nH]1)[C@@H](C)OC [Example 460] | < 1 |
| COC(=O)N[C@H](C(=O)N1CCC[C@H]1c1ncc(-c2ccc(C#Cc3ccc4nc([C@@H]5C[C@H](Oc6ccccc6)CN5C(=O)[C@@H](NC(=O)OC)C(C)C)[nH]c4c3)cc2)[nH]1)C(C)C [Example 538] | < 1 |
| COC(=O)N[C@H](C(=O)N1CCC[C@H]1c1ncc(-c2ccc(C#Cc3ccc4nc([C@@H]5C[C@@H](F)CN5C(=O)[C@@H](NC(=O)OC)C(C)C)[nH]c4c3)cc2)[nH]1)C(C)C [Example 540] | < 1 |
| COC(=O)N[C@@H](C(=O)N1CCC[C@H]1c1nc2ccc(C#Cc3ccc(-c4cnc([C@@H]5CCCN5C(=O)[C@H](NC(=O)OC)c5ccccc5)o4)cc3)cc2[nH]1)c1ccccc1 [Example 533] | < 1 |
| COC(=O)N[C@@H](C)C(=O)N1CCC[C@H]1c1nc2cc(C#Cc3ccc(-c4c[nH]c([C@@H]5CCCN5C(=O)[C@@H](NC(=O)OC)C(C)C)n4)cc3)ccc2[nH]1 [Example 501] | < 1 |
| C=C(c1ccc(-c2c[nH]c([C@@H]3CCCN3C(=O)[C@@H](NC(=O)OC)C(C)C)n2)cc1)c1ccc2nc([C@@H]3CCCN3C(=O)[C@@H](NC(=O)OC)C(C)C)[nH]c2c1 [Example 493] | < 1 |
| COC(=O)N[C@H](C(=O)N1CCC[C@H]1c1ncc(-c2ccc(C#Cc3ccc4nc([C@@H]5C[C@@H](Oc6ccccc6)CN5C(=O)[C@@H](NC(=O)OC)C(C)C)[nH]c4c3)cc2)[nH]1)C(C)C [Example 537] | < 1 |
| COC(=O)N[C@@H](C(=O)N1CCC[C@H]1c1ncc(-c2ccc(CCc3ccc4nc([C@@H]5CCCN5C(=O)[C@H](NC(=O)OC)c5ccccc5)[nH]c4c3)cc2)[nH]1)c1ccccc1 [Example 2-2] | < 1 |
| COC(=O)N[C@H](C(=O)N1C[C@H](O)C[C@H]1c1ncc(-c2ccc(C#Cc3ccc4nc([C@@H]5CCCN5C(=O)[C@@H](NC(=O)OC)C(C)C)[nH]c4c3)cc2)[nH]1)C(C)C [Example 535] | < 1 |
| COC(=O)N[C@H](C(=O)N1CCC[C@H]1c1nc(-c2ccc(/C=C/c3ccc4[nH]c([C@@H]5CCCN5C(=O)[C@@H](NC(=O)OC)C(C)C)nc4c3)s2)c[nH]1)C(C)C [Example 453] | < 1 |
| COC(=O)N[C@H](C(=O)N1CCC[C@H]1c1nc(-c2ccc(C#Cc3ccc4[nH]c([C@@H]5CC6(CC6)CN5C(=O)[C@@H](NC(=O)OC)C(C)C)nc4c3)cc2)c[nH]1)C(C)C [Example 521] | < 1 |
| COC(=O)N[C@H](C(=O)N1CCC[C@H]1c1nc(-c2ccc3cc(-c4ccc5[nH]c([C@@H]6CCCN6C(=O)[C@H](NC(=O)OC)c6ccccc6)nc5c4)ccc3c2)c[nH]1)[C@@H](C)OC [Example 463] | < 1 |
| COC(=O)N[C@H](C(=O)N1CCC[C@H]1c1nc(-c2ccc(C#Cc3ccc4[nH]c([C@@H]5CCCN5C(=O)[C@H](NC(=O)OC)C(C)C)nc4c3)cc2)c[nH]1)C(C)C [Example 508] | < 1 |
| COC(=O)N[C@H](C(=O)N1CCC[C@H]1c1nc(-c2ccc(C#Cc3ccc4[nH]c([C@@H]5CCCN5C(=O)[C@H](NC(=O)OC)c5ccccc5)nc4c3)cc2)c[nH]1)C(C)C [Example 504] | < 1 |

Same assay, conditions: Hepatitis C virus, Table 12, numeric values, read-out: 1b EC50

| Compound | EC50 [nM] |
| --- | --- |
| COC(=O)N[C@H](C(=O)N1CC2(CC2)C[C@H]1c1nc2cc(C#Cc3ccc(-c4coc([C@@H]5CC6(CC6)CN5C(=O)[C@@H](NC(=O)OC)C(C)C)n4)cc3)ccc2[nH]1)C(C)C [Example 577] | 0.16 |
| COC(=O)N[C@H](C(=O)N1CCC[C@H]1c1ncc(-c2ccc3cc(-c4ccc5nc([C@@H]6C[C@H](C7CC7)CN6C(=O)[C@@H](NC(=O)OC)C(C)C)[nH]c5c4)ccc3c2)[nH]1)C(C)C [Example 642] | 0.007 |

Same assay, conditions: Hepatitis C virus, Table 12, range class, read-out: 1b EC50 Range

| Compound | EC50 [nM] |
| --- | --- |
| COC(=O)N[C@H](C(=O)N1CCC[C@H]1c1ncc(-c2ccc(C#Cc3ccc4nc([C@@H]5C[C@@]6(CC(C)=NO6)CN5C(=O)[C@@H](NC(=O)OC)C(C)C)[nH]c4c3)cc2)[nH]1)C(C)C [Example 623] | < 1 |
